Data as given in US9340559B2, “Proteasome inhibitor delanzomib for use in the treatment of lupus” (Cephalon, Inc., priority 2011, dated 2016).

Legend:
Type in all cases: in vivo, mouse
MRL/lpr mice [1] = assay: Urinalysis: total urine protein (proteinuria), MRL/lpr mice
Experimental: Urine samples are acid precipitated for total protein recovery and analysis. Samples for which enough urine remained are used for Uristix® leukouria analysis. Briefly, a standard protein solution is prepared from normal mouse sera and is used as a standard for mouse urinary protein assay by turbidity. Standard preparation is as follows: 0, 5, 10, 15, 20, 30, 40, and 50 μL of a 4 mg/mL mouse sera standard protein solution as provided in the kit are added in duplicate into two columns. PBS is added to individual wells to adjust the final volume to 50 μL. For urine sample preparation, urine samples are centrifuged at 9880×g for 3 minutes using a tabletop micro-centrifuge. Urine supernatant (1-50 μL) is added in duplicate. PBS is added to adjust the volume to 50 μL total. For the turbidity assay: 25 μL of 0.1 N HCl is added into blank columns and 250 μL of 3% sulfosalicyclic acid into the test columns. The microplate is incubated for 10 minutes at RT and plates are read using an ELISA reader with single beam at 450 nm. For the Uristix® strip assay, strips are laid out and labeled. Twenty microliters of urine are placed onto each test strip square and incubated for at least 30 seconds before the result is recorded. For all total urine analysis plate-based assays, values below the limit of detection set by the lowest point along the standard or set by the manufacturer are considered out of range and are not estimated, but assumed the lowest point along the standard curve for that particular assay.

MRL/lpr mice [2] = assay: Renal histopathology scoring (kidney IC-GN), MRL/lpr mice
Experimental: For histological analyses, the left kidney from each animal is removed and fixed in 10% buffered neutral 10% formalin (EMD) for 48 hours on an orbital rocker at 25° C., then washed overnight with running dH2O and stored in 70% ethanol at 4° C. until ready to be processed. Kidney stains used for histological analyses included hematoxylin and eosin (H&E), Periodic Acid Schiff (PAS) and Trichrome stains (Wistar Institute, Philadelphia, Pa.). All 3 stained sections are used by the pathologist for scoring purposes. All histological scoring is performed blinded and by an independent board certified veterinary medical pathologist (Julie Engiles, VMD, DACVP). Multiple stains are used to determine score values. Images in FIG. 17 show worst affected area of section selected blindly by the pathologist.
Kidney IC-GN Scoring Method (Smith, Dong et al. 2007):
1. Glomerular cellularity—Score 1-5: Null, low, moderate, high, severe
2. Glomerular necrosis—Score 1-5: Null, low, moderate, high, severe
3. Glomerulosclerosis—Score 1-5: Null, low, moderate, high, severe
4. Interstitial infiltration—Score 1-5: Null, low, moderate, high, severe
5. Tubular atrophy—Score 1-5: Null, low, moderate, high, severe
6. Interstitial fibrosis—Score 1-5: Null, low, moderate, high, severe
7. Vasculitis—Score 1-5: Null, low, moderate, high, severe
Specific Pathologist Definitions: • Necrosis is defined by the presence of nuclear debris/pyknosis within the glomerular tuft indicative of “necrosis.” In many samples, this is a very mild, rare finding within only a very few segments of the glomerular tuft. Also consider effacement of the glomerular tuft by PAS positive, Trichrome negative material necrosis. • Glomerular sclerosis is defined by increased fibroplasia or fibrosis within the glomerular tuft or capsule. […] Most of the vascular changes are mild and could be considered “arteriosclerosis” characterized by proliferation of the smooth muscle cells, and hyalinization of the extracellular matrix. This change may reflect hypertension secondary to glomerular pathology. In very few animals is there overt “vasculitis.” Most inflammatory changes are within the walls of the blood vessels, with little to no damage to the endothelium, and no overt hemorrhage/fibrin leakage. Many also have perivascular rims of fibroblasts.

NZM mice [3] = assay: Antinuclear antibody (ANA) ELISA (anti-chromatin, anti-Smith Ag, anti-dsDNA), serum of NZM mice (Example 2)
NZM mice [4] = settings: G1 3 mg/kg 1× wk ip

CC(C)C[C@H](NC(=O)[C@@H](NC(=O)c1cccc(-c2ccccc2)n1)[C@@H](C)O)B(O)O [COMPOUND A, [(1R)-1-[[(2S,3R)-3-hydroxy-2-[6-phenyl-pyridine-2-carbonyl)amino]-1-oxobutyl]amino]-3-methylbutylboronic acid]
Urine AUC proteinuria, percent change vs vehicle (MRL/lpr mice [1]; G1: 3 mg/kg iv, 1× wk): −60% | Urine AUC proteinuria, percent change vs vehicle (MRL/lpr mice [1]; G2: 3 mg/kg iv, 2× wk): −70% | Urine AUC proteinuria, percent change vs vehicle (MRL/lpr mice [1]; G3: 10 mg/kg po, 2× wk): −71% | total urine protein reduction relative to vehicle (MRL/lpr mice [1]; Group 1): 60% | total urine protein reduction relative to vehicle (MRL/lpr mice [1]; Group 2): 70% | total urine protein reduction relative to vehicle (MRL/lpr mice [1]; Group 3): 71% | decrease in average renal pathology score vs vehicle (MRL/lpr mice [2]; COMPOUND A treatment groups): 1.55-1.86 fold | EOS glomerular cellularity, percent change vs vehicle (MRL/lpr mice [2]; G1: 3 mg/kg iv, 1× wk): −41% | EOS glomerular necrosis, percent change vs vehicle (MRL/lpr mice [2]; G1: 3 mg/kg iv, 1× wk): −38% | EOS glomerulosclerosis, percent change vs vehicle (MRL/lpr mice [2]; G1: 3 mg/kg iv, 1× wk): −39% | EOS interstitial infiltration, percent change vs vehicle (MRL/lpr mice [2]; G1: 3 mg/kg iv, 1× wk): −42% | EOS vasculitis, percent change vs vehicle (MRL/lpr mice [2]; G1: 3 mg/kg iv, 1× wk): −33% | Kidney EOS interstitial fibrosis, percent change vs vehicle (MRL/lpr mice [2]; G1: 3 mg/kg iv, 1× wk): −31% | Kidney EOS tubular atrophy, percent change vs vehicle (MRL/lpr mice [2]; G1: 3 mg/kg iv, 1× wk): −35% | EOS glomerular cellularity, percent change vs vehicle (MRL/lpr mice [2]; G2: 3 mg/kg iv, 2× wk): −36% | EOS glomerular necrosis, percent change vs vehicle (MRL/lpr mice [2]; G2: 3 mg/kg iv, 2× wk): −47% | EOS glomerulosclerosis, percent change vs vehicle (MRL/lpr mice [2]; G2: 3 mg/kg iv, 2× wk): −45% | EOS interstitial infiltration, percent change vs vehicle (MRL/lpr mice [2]; G2: 3 mg/kg iv, 2× wk): −61% | EOS vasculitis, percent change vs vehicle (MRL/lpr mice [2]; G2: 3 mg/kg iv, 2× wk): −45% | Kidney EOS interstitial fibrosis, percent change vs vehicle (MRL/lpr mice [2]; G2: 3 mg/kg iv, 2× wk): −42% | Kidney EOS tubular atrophy, percent change vs vehicle (MRL/lpr mice [2]; G2: 3 mg/kg iv, 2× wk): −46% | EOS glomerular cellularity, percent change vs vehicle (MRL/lpr mice [2]; G3: 10 mg/kg po, 2× wk): −33% | EOS glomerular necrosis, percent change vs vehicle (MRL/lpr mice [2]; G3: 10 mg/kg po, 2× wk): −31% | EOS glomerulosclerosis, percent change vs vehicle (MRL/lpr mice [2]; G3: 10 mg/kg po, 2× wk): −33% | EOS interstitial infiltration, percent change vs vehicle (MRL/lpr mice [2]; G3: 10 mg/kg po, 2× wk): −50% | EOS vasculitis, percent change vs vehicle (MRL/lpr mice [2]; G3: 10 mg/kg po, 2× wk): −43% | Kidney EOS interstitial fibrosis, percent change vs vehicle (MRL/lpr mice [2]; G3: 10 mg/kg po, 2× wk): −27% | Kidney EOS tubular atrophy, percent change vs vehicle (MRL/lpr mice [2]; G3: 10 mg/kg po, 2× wk): −42% | renal interstitial infiltration reduction vs vehicle (MRL/lpr mice [2]; all 3 COMPOUND A treatment groups): up to 61% | ANA Smith Ag AUC, percent change vs vehicle (NZM mice [3]; G1 3 mg/kg ip, 1× wk): −88% | ANA chromatin AUC, percent change vs vehicle (NZM mice [3]; G1 3 mg/kg ip, 1× wk): −63% | ANA dsDNA AUC, percent change vs vehicle (NZM mice [3]; G1 3 mg/kg ip, 1× wk): −21% | ANA Smith Ag AUC, percent change vs vehicle (NZM mice [3]; G2 3 mg/kg ip, 2× wk): 8% | ANA chromatin AUC, percent change vs vehicle (NZM mice [3]; G2 3 mg/kg ip, 2× wk): −79% | ANA dsDNA AUC, percent change vs vehicle (NZM mice [3]; G2 3 mg/kg ip, 2× wk): −68% | serum anti-dsDNA Ab decrease vs vehicle (NZM mice [3]; once weekly COMPOUND A): 21% | serum anti-Smith Ag Ab decrease vs vehicle (NZM mice [3]; once weekly COMPOUND A (3 mg/kg ip)): 88% | serum anti-chromatin Ab decrease vs vehicle (NZM mice [3]; twice weekly (3 mg/kg ip)): 79% | serum anti-dsDNA Ab decrease vs vehicle (NZM mice [3]; twice weekly COMPOUND A): 68% | serum anti-chromatin Ab decrease vs vehicle (NZM mice [3]; weekly (3 mg/kg ip)): 63% | p, serum IL-12p40/p70 concentration vs G5 Bortezomib 0.3 mg/kg 1× wk ip (NZM mice [4]): NS (NS = not significant (p > 0.05)) | p, serum IL-12p40/p70 concentration vs G6 Bortezomib 0.3 mg/kg 2× wk ip (NZM mice [4]): NS (NS = not significant (p > 0.05)) | p, serum IL-12p40/p70 concentration vs G7 CTX 50 mg/kg 1× wk ip (NZM mice [4]): NS (NS = not significant (p > 0.05)) | p, serum IL-12p40/p70 concentration vs G8 Dex 1.5 mg/kg 3× wk ip (NZM mice [4]): NS (NS = not significant (p > 0.05)) | p, serum IL-12p40/p70 concentration vs G9 Vehicle 1× wk ip (NZM mice [4]): p < 0.001 | p, serum IL-13 concentration vs G5 Bortezomib 0.3 mg/kg 1× wk ip (NZM mice [4]): NS (NS = not significant (p > 0.05)) | p, serum IL-13 concentration vs G6 Bortezomib 0.3 mg/kg 2× wk ip (NZM mice [4]): NS (NS = not significant (p > 0.05)) | p, serum IL-13 concentration vs G7 CTX 50 mg/kg 1× wk ip (NZM mice [4]): p < 0.001 | p, serum IL-13 concentration vs G8 Dex 1.5 mg/kg 3× wk ip (NZM mice [4]): NS (NS = not significant (p > 0.05)) | p, serum IL-13 concentration vs G9 Vehicle 1× wk ip (NZM mice [4]): NS (NS = not significant (p > 0.05)) | p, serum IL-17A concentration vs G5 Bortezomib 0.3 mg/kg 1× wk ip (NZM mice [4]): NS (NS = not significant (p > 0.05)) | p, serum IL-17A concentration vs G6 Bortezomib 0.3 mg/kg 2× wk ip (NZM mice [4]): p < 0.01 | p, serum IL-17A concentration vs G7 CTX 50 mg/kg 1× wk ip (NZM mice [4]): p < 0.001 | p, serum IL-17A concentration vs G8 Dex 1.5 mg/kg 3× wk ip (NZM mice [4]): NS (NS = not significant (p > 0.05)) | p, serum IL-17A concentration vs G9 Vehicle 1× wk ip (NZM mice [4]): NS (NS = not significant (p > 0.05)) | p, serum IP-10 concentration vs G5 Bortezomib 0.3 mg/kg 1× wk ip (NZM mice [4]): NS (NS = not significant (p > 0.05)) | p, serum IP-10 concentration vs G6 Bortezomib 0.3 mg/kg 2× wk ip (NZM mice [4]): NS (NS = not significant (p > 0.05)) | p, serum IP-10 concentration vs G7 CTX 50 mg/kg 1× wk ip (NZM mice [4]): p < 0.001 | p, serum IP-10 concentration vs G8 Dex 1.5 mg/kg 3× wk ip (NZM mice [4]): NS (NS = not significant (p > 0.05)) | p, serum IP-10 concentration vs G9 Vehicle 1× wk ip (NZM mice [4]): NS (NS = not significant (p > 0.05))
